The results in this text go back to patent US20160303184A1, “VANCOMYCIN-SUGAR CONJUGATES AND USES THEREOF” (JAWAHARLAL NEHRU CENTRE FOR ADVANCED SCIENTIFIC RESEARCH …, priority 2013, published 2016).

Values after ≈ are worked out from the molar mass of the structure shown. Like-named read-outs stand apart in the source and are kept apart here.

The nature of data set [1]: Single dose pharmacokinetics. It is filed as in vivo, CD-1 female mice. The following applies: 12 mg/kg single i.v., mice, plasma. The arrangement: clearance: unit not given here. The method, then:
A single dose pharmacokinetic analysis of compound 7 was performed in CD-1 female mice. Mice were administered a single intravenous dose of 12 mg/kg. Blood samples were collected from mice by retro-orbital aspiration and placed into heparinized tubes at different time intervals after dosing. The plasma was separated by centrifugation, and drug plasma concentrations were measured by microbiologic assay with Bacillus subtilis as the test organism. The lower limit of detection of the assay was 0.6 μg/ml. Pharmacokinetic parameters, including half-life, AUC and Cmax were calculated by using non-compartmental model.

The nature of data set [2]: Systemic toxicity (LD50). The arrangement: species or system CD-1 female mice. The note with it: female, CD-1, mouse, in vivo, iv, single-dose i.v., mice. On the procedure: Systemic toxicity was examined after i.v injection of compound 7 to CD-1 female mice. Each mouse was injected with a 0.2 ml of freshly prepared compound 7 solution in saline. The doses of the compound administered per group were according to OECD guidelines (OECD, 2005).

For data set [3], the system named is methicillin-resistant S. epidermidis clinical isolate. Briefly: MIC, clinical isolate of methicillin-resistant S. epidermidis. It is filed as cell-based. The note with it: Staphylococcus epidermidis, read-out: MIC S. epidermidis.
In data set [4] the test system is Vancomycin-resistant E. faecium (VanA, ATCC 51559). Briefly: MIC, micro-dilution broth, VRE (VanA). It is filed as cell-based. On the procedure: (§1) All test compounds were assayed in a micro-dilution broth format. Stock solutions were made by serially diluting the compounds using autoclaved millipore water or broth media. The antibacterial activity of the compounds was determined against methicillin-sensitive S. aureus (MSSA), methicillin-resistant S. aureus (MRSA), vancomycin-intermediate-resistant S. aureus (VISA), vancomycin-sensitive E. faecium (VSE) and vancomycin-resistant E. faecium (VRE). Bacteria, to be tested, were grown for about 10 h in the suitable media, MSSA, MRSA and VISA were grown in yeast-dextrose broth (about 1 g of beef extract, about 2 g of yeast extract, about 5 g of peptone and about 5 g of NaCl in about 1000 mL of sterile distilled water (pH-7)). For solid media, about 5% agar was used along with above mentioned composition. VSE and VRE were cultured in brain heart infusion broth (Himedia). The bacterial samples were freeze dried and stored at −80° C. About 5 μL of these stocks were added to about 3 mL of the nutrient broth and the culture was grown for about 6 h at about 37° C. prior to the experiments. This 6 h grown culture gives about 10^9 cfu/mL and this was determined by spread plating method. The 6 h grown culture was diluted to give effective cell concentration of about 10^5 cfu/mL which was then used for determining MIC. Compounds were serially diluted, in sterile water (2 fold dilution is employed) in a way that the working concentration was about 10 μM for MSSA, MRSA, and VSE while for VRE and VISA it was about 100 μM. About 50 μL of these serial dilutions were added to the wells of 96 well plate followed by the addition of about 150 μL of bacterial solution. The plates were then incubated at about 37° C., 150 rpm in the incubator and O.D at 600 nm was recorded at an interval of about 10 h and 24 h using TECAN (Infinite series, M200 pro) Plate Reader. Each concentration had triplicate values and the whole experiment was done at least twice and the MIC value was determined by taking the average of triplicate. O. D. values for each concentration and plotting it against concentration. The data was then subjected to sigmoidal fitting. From the curve the MIC value was determined, as the point in the curve where the O. D. was similar to that of control having no bacteria.
Background: Broth dilution looks for growth in wells or tubes with falling amounts of substance.

Data set [5] relates to Methicillin-sensitive S. aureus (MTCC 737). Briefly: MIC, micro-dilution broth, MSSA. The following applies: Staphylococcus aureus, read-out: MIC MSSA. The format is cell-based. On the procedure: as §1
The test system of data set [6] is methicillin-resistant S. haemolyticus clinical isolate. Briefly: MIC, clinical isolate of methicillin-resistant S. haemolyticus. It is filed as cell-based. The note with it: Staphylococcus haemolyticus, read-out: MIC S. haemolyticus.
The test system of data set [7] is MR-VISA. Briefly: In-vivo antibacterial activity, neutropenic mouse thigh infection. The following applies: 12 mg/kg i.v., neutropenic mice, 24 h. The arrangement: species or system Staphylococcus aureus. The method, then: About six-week-old, female CD-1 mice (weight, ˜19-24 g) were used for the experiments. The mice were rendered neutropenic (˜100 […]) by injecting two doses of cyclophosphamide intraperitoneally 4 days (150 mg/kg) and 1 day (100 mg/kg) before the infection experiment. 50 μl of ˜10^7 CFU/ml concentration of the bacterial inoculum (MR-VISA) was injected into the thigh. One hour after inoculation, animals were treated intravenously with saline, vancomycin, linezolid and compound 7 at 12 mg/kg and 24 mg/kg of body weight (24 h total dosage). At 24 h post first treatment, cohorts of animals were euthanized (using ether) and the thighs were collected aseptically. The thigh was weighed (0.7 g-0.9 g) and placed into 10 ml of sterile saline and homogenized. The dilutions of the homogenate were plated onto agar plates, which were incubated overnight at 37° C. The bacterial titer was expressed as log10 CFU/g of thigh weight.

Data set [8] concerns methicillin-resistant vancomycin-intermediate S. aureus (MR-VISA). Briefly: Time-kill assay. The format is cell-based. The following applies: 2 μM and 4 μM. The method, then:
The bactericidal activity was assessed by the kinetics or the rate at which it affects the killing action of the compound. Briefly methicillin-resistant vancomycin-intermediate S. aureus (MR-VISA) grown in Yeast-Dextrose broth. A starting inoculum of 1.6×10^8 CFU/ml was used as initial bacterial colony count. Vancomycin and compound 7 having final concentrations of 2 μM and 4 μM were inoculated with MR-VISA suspensions having starting inocula of 1.6×10^8 CFU/ml. Bacterial suspension containing specified concentrations of the compound along with negative control (which contains only 0.9% Saline) was incubated at 37° C. with shaking. Aliquots (20 μl) were removed from the cultures at different time intervals and were serially diluted 10-fold in 0.9% saline and plated onto sterile Yeast-Dextrose agar medium. The number of viable cells was determined by plating the 10-fold serial dilution of each sample onto Yeast-dextrose agar medium. Plates were then incubated for 24 h at 37° C., CFU was counted and the total bacterial log 10 CFU/ml was determined.

As a reminder, the Cmax is the maximum level reached in the sampled fluid or tissue. In general, half-life refers to the time needed for the level to fall by half in the phase considered. One may read the AUC as the area under the concentration-time curve, a measure of exposure. In general, LD50 refers to the dose at which mortality reaches 50%. What is called MIC is the lowest concentration that inhibits growth of the organism. In the case of `CCCCCCCCCCN[C@]1(C)C[C@H](OC2C(O)[C@@H](O)C(CO)O[C@@H]2Oc2c3cc4cc2Oc2ccc(cc2Cl)[C@@H](O)[C@@H](NC(=O)[C@@H](CC(C)C)NC)C(=O)N[C@@H](CC(N)=O)C(=O)N[C@H]4C(=O)N[C@H]2C(=O)N[C@H](C(=O)N[C@H](C(=O)NCCCNC(=O)[C@H](O)[C@@H](O)[C@H](OC4OC(CO)C(O)C(O)[C@H]4O)[C@H](O)CO)c4cc(O)cc(O)c4-c4cc2ccc4O)[C@H](O)c2ccc(c(Cl)c2)O3)OC(C)[C@@H]1O` (stereo partly drawn) [Compound 7], the Cmax in data set [1] was 703 µg/mL; in data set [1] (female, CD-1, mouse, iv, 12 mg/kg, read-out: Cmax), 703 µg/mL. In data set [1], this compound showed a Cmin of 1.7 µg/mL. Further, in data set [1] (female, CD-1, mouse, iv), the half-life was 2.76 h. In data set [1] (female, CD-1, mouse, iv, read-out: AUC0-24 h), the AUC(0-t) was 562 µg·h/mL. Also, the clearance in data set [1] (female, CD-1, mouse, iv) was 4.17. Further, the AUC in data set [1] (female, CD-1, mouse, iv, 0.083 h to 24 h) is 562 µg·h/mL. In data set [2], this compound returned an LD50 at 14 days greater than 100 mg/kg. Moreover, the minimum inhibitory concentration (MIC) in data set [3] turned out to be 0.3 µM (≈ 0.596 µg/mL); in data set [4] (Enterococcus faecium, read-out: MIC VRE (VanA)) it was 1 µM (≈ 1.99 µg/mL); in data set [5] it was 0.2 µM (≈ 0.397 µg/mL); in data set [6] it was 0.41 µM (≈ 0.814 µg/mL). Besides, the “fold higher activity than vancomycin” value in data set [4] (VRE (VanA phenotype)) is reported as greater than 700 fold. For the same compound, the “reduction in bacterial count from the initial titer” value in data set [7] is roughly 3.0 log10 CFU/g. For the same compound, the killing kinetics entry in data set [8] was “rapid”.
